Patent US20110139152A1, “ANTIBIOTIC MICROPARTICLES FOR INHALATION” (Chiesi Farmaceutici S.p.A., priority 2009, published 2011)

Experiment: Aerosol performance by laser diffraction (Spraytec with inhalation cell, Monodose inhaler)
Assay type: physicochemical
Conditions: mean
Method: The aerosol performance of the microparticles of the present invention were evaluated by laser diffraction (Spraytec, Malvern Instruments, Worcestershire, UK) equipped with an inhalation cell attachment. Approximate 30 mg (or 15 mg in later tests) of each powder was loaded into size 3 HPMC capsules (Capsugel, Peapack, N.J., USA). Before the aerosolization, a stainless steel pin punched each end of the capsule allowing powders to be released from the capsule by providing two holes with diameter about 1 mm. Each capsule was aerosolized using a Monodose inhaler device (Miat S.p.A., Milan, Italy) at flow rate of 60 and 90 L/min. All measurements were made on four replicates at room temperature (20° C., 50% RH). Each measurement was performed over 4 s.
The device retention was calculated as a percentage of powder left both in the capsules and in the inhalers to the total load. The fine particle fraction (FPF) was defined as the amount of drug particle smaller than 5.4 μm as a percentage of the powder emitted from inhaler device.
It should be noted that all powders were tested after removing large agglomerates by gently passing the powders through a 250 μm sieve.
To further improve both the emitted dose and FPF of the mechano-fused microparticles with lower contents of MgSt, e.g. between 0.5% and 1%, loose agglomeration was applied by vibrating powders between two sieves of 180 and 710 μm.
Prior to this sieving process, powders were tumbled to encourage formation of loose agglomerates.

[1] = 90 L/min, loosely agglomerated drug powders (tumbled, vibrated between sieves of 180 and 710 μm) versus unsieved

- <5.4 μm (%) (fine particle fraction, FPF) (90 L/min air flow, Monodose inhaler, percentage of the powder emitted, powders passed through 250 μm sieve): 32.58%
- <5.4 μm (%) (fine particle fraction, FPF) (90 L/min air flow, Monodose inhaler, percentage of the powder emitted, powders passed through 250 μm sieve, listed as untreated drug powder): around 30%
- Emitted dose (%) (90 L/min air flow, Monodose inhaler, size 3 HPMC capsules, powders passed through 250 μm sieve): 70.77%
- <5.4 μm (%) (fine particle fraction, FPF) [1]: 32.58%
- Emitted dose (%) [1]: 70.77%
Compound: NC[C@H]1O[C@H](O[C@H]2[C@H](O)[C@@H](O[C@H]3O[C@H](CO)[C@@H](O)[C@H](N)[C@H]3O)[C@H](N)C[C@@H]2N)[C@H](N)C[C@@H]1O [TMC-raw, (2S,3R,4S,5S,6R)-4-amino-2-{[(1S,2S,3R,4S,6R)-4,6-diamino-3-{[(2R,3R,5S,6R)-3-amino-6-(aminomethyl)-5-hydroxyoxan-2-yl]oxy}-2-hydroxycyclohexyl]oxy}-6-(hydroxymethyl)oxane-3,5-diol]
